Assay results reported in ChEMBL document CHEMBL2311395, “One pot solvent free synthesis and in vitro antitubercular screening of 3-Aracylphthalides against Mycobacterium tuberculosis” (Bioorg Med Chem Lett, 2013).
Converted amounts (≈) assume the structure as drawn.

System: Mycobacterium tuberculosis
Assay: Antitubercular activity against Mycobacterium tuberculosis H37Ra ATCC 25177 assessed as growth inhibition after 8 days by XTT reduction menadione assay
Type: functional, organism-based
Conditions: H37Ra ATCC 25177, 192 h

| Compound | IC50 [µg/mL] | IC90 [µg/mL] |
| --- | --- | --- |
| O=C(CC1OC(=O)c2ccccc21)c1ccco1 (centres undefined) | 0.81 (≈ 3.34 µM) | – |
| O=C(CC1OC(=O)c2ccccc21)c1cccs1 (centres undefined) | 1.24 (≈ 4.8 µM) | – |
| O=C(CC1OC(=O)c2ccccc21)c1ccc(Cl)cc1 (centres undefined) | 0.97 (≈ 3.38 µM) | – |
| NNC(=O)c1ccncc1 [ISONIAZID] | – | 0.125 (≈ 0.911 µM) |
